Data reported in US11219623B2, “Inflammasome inhibition for the treatment of Parkinson's disease, Alzheimer's disease and multiple sclerosis” (University of Kentucky Research Foundation, priority 2015, dated 2022).
Converted amounts (≈) assume the structure as drawn.

Key:
HeLa cells = test: Cytotoxicity of Alu RNA expression plasmid (pAluA), MTS proliferation assay; type: cell-based, human; details: pAluA vs pUC19
Excerpt: Meanwhile, in certain embodiments, […] protects against cytotoxicity induced by plasmid expressing Alu RNA in vitro.

human P2X7 receptor = biological target: T1, human P2X7 receptor (Homo sapiens, UniProt Q99572); details: 64 μM drug; bzATP 100 μM; n=12
T1 sequence (Q99572 1-595): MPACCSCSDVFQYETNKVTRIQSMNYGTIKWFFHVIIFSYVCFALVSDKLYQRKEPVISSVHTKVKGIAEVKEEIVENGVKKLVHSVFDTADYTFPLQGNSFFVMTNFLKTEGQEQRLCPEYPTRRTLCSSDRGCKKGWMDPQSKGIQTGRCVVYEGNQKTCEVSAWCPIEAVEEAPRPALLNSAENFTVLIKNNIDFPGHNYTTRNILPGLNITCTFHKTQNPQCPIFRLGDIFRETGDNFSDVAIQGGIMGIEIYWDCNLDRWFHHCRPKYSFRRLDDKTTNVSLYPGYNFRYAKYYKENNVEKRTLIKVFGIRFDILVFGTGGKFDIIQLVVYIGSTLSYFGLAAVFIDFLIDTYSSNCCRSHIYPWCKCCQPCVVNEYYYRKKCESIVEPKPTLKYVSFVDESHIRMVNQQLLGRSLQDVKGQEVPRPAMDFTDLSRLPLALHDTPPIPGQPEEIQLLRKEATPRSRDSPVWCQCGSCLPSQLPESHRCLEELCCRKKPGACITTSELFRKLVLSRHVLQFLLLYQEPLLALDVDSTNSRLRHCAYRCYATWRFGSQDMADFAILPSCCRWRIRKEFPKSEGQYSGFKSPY

Caspase-1 [1] = test: iGLuc luminescence assay of ATP-induced Caspase-1 activation in J774 iGLuc cells; type: cell-based, mouse
Procedure: Caspase-1 is the enzyme at the core of the inflammasome complex and is an important danger response signal and mediator of RPE cell death in AMD. […] Importantly, there was some difference between individual compounds in terms of the dose response curve, emphasizing the need to test each compound (with unique R group(s)) individually.
To obtain the data set forth in FIGS. 64-73, an iGLuc assay was conducted (modified from Bartok et al. iGLuc: a luciferase-based inflammasome and protease activity reporter. Nature Methods 2013; 10(2):147-54). Briefly, 100,000 iGLuc cells per well were plated in a 96 well plate overnight. The next morning, media is aspirated from the plate and replaced with 75 μL of serum free DMEM with drugs (NRTIs or modified NRTIs) for 30 min. After 30 minutes of drug exposure, 20 mM ATP (25 μL) is added for a final concentration of 5 mM. 50 μL of media from each well is collected and 50 μL of coelenterazine 4.4 μM is added to each sample, and luminescence is read immediately.

[2] = NLRP3- and P2X7-driven model of sterile liver inflammation; details: in vivo
Excerpt: (§1) To explore the potential therapeutic relevance of NRTIs beyond the Alu-induced model of geographic atrophy (GA), it was hypothesized that if NRTIs function as generic inflammasome inhibitors, then they might be broadly useful in other animal models of disease that are also driven by P2X7.

Solubility in water = type: physicochemical; details: aqueous buffer; Water pH 7.2 at 37° C.
IL-1 beta = test: MSU-induced IL-1 beta secretion from PMA-differentiated THP-1 monocytes, ELISA; type: cell-based, human; details: 25-1000 uM
Excerpt: Human THP-1 monocytes were differentiated into macrophages with PMA.
To illustrate this, human THP-1 monocytes were differentiated into macrophages with PMA. Treatment with MSU increased IL-1 beta secretion compared to non-treated cells. […]

IRAK4 = test: LPS/ATP-induced IRAK4 phosphorylation, primary human RPE cells; type: cell-based; details: 25/100 uM
Excerpt: (§2) The loading control in FIG. 8 is vinculin. Furthermore, as shown, LPS and ATP activate the NLRP3 inflammasome only in combination, thus treatment with one or the other alone is useful as a control for this experiment.

Caspase-1 [3] = test: LPS/ATP-induced Caspase-1 activation, mouse bone marrow-derived macrophages, western blot
mice = test: Graft-versus-host disease model, mice receiving allogeneic bone marrow and T cells; type: in vivo, mouse; details: vs. 0% in saline treated controls
Excerpt: as §1

Caspase-1 [4] = test: LPS/ATP-induced Casp-1 activation, primary human RPE cells; type: cell-based; details: 25/100 uM
Excerpt: as §2

NLRP3 mRNA = test: NLRP3 priming (mRNA) induced by Alu RNA, primary human RPE cells; type: cell-based; details: 100 uM; 16 hours; normalized to 18S RNA
Procedure: Indeed, as provided in the bar graph of FIG. 13, Alu RNA transfection increases NLRP3 mRNA levels in primary human RPE cells at 16 hours, an event termed “priming” (Y-axis) compared to mock (transfection reagent alone).

Structure (SMILES): Cc1cn([C@H]2C=C[C@@H](CO)O2)c(=O)[nH]c1=O [d4T, 2′3′ dideoxythymidine]
- cell death induced by Alu overexpression (viability, MTS) (HeLa cells): prevented cell death
- P2X7-mediated YO-PRO-1 dye uptake induced by bzATP (human P2X7 receptor): inhibited
- Caspase-1 cleavage (luminescence) (Caspase-1 [1]; ATP 5 mM, drug 1 nM-100 μM, N=3): reduces Caspase-1 cleavage in a dose-dependent fashion
- reduction of inflammasome activation (Caspase-1 [1]; ATP (5 mM), mouse J774 iGLuc cells, FIGS. 70-73): about 35%
- neutrophil migration to the focus of liver injury [2]: reduced neutrophil migration
- solubility (Solubility in water): 106 mg/mL (≈ 473 mM)
- IL-1beta secretion induced by MSU (IL-1 beta): did not significantly affect IL-1beta secretion
- IRAK4 phosphorylation induced by LPS/ATP (IRAK4): blocks
- Caspase-1 activation (active p20 band) induced by LPS/ATP (Caspase-1 [3]; 100 uM, cell culture supernatants): inhibit Caspase-1 activation
- LPS/ATP-induced Caspase-1 maturation (Caspase-1 [3]; concentration not given): inhibited LPS/ATP-induced Caspase-1 maturation
- survival (mice): 30-70%
- Casp-1 activation induced by LPS/ATP (Caspase-1 [4]): blocks Casp-1 activation
- NLRP3 mRNA levels (priming) induced by Alu RNA (NLRP3 mRNA): reduces NLRP3 priming
